Assay results from US9216981B2, “Purinylpyridinylamino-2,4-difluorophenyl sulfonamide derivative, pharmaceutically acceptable salt thereof, preparation method thereof, and pharmaceutical composition with inhibitory activity against Raf kinase, containing same as active ingredient” (Medpacto, Inc., priority 2010, dated 2015).

Assays:
[1] = target: B-Raf (Homo sapiens (Human), UniProt P15056); assay: B-Raf kinase activity (B-Raf/MEK1/MAPK2 cascade, MBP phosphorylation, [γ-32P]ATP); type: biochemical; settings: activated B-Raf, inactivated MEK1, inactivated MAPK2, 30° C., 30 minutes, read-out: B-Raf Enzyme Activity
Sequence of B-Raf (P15056 whole entry): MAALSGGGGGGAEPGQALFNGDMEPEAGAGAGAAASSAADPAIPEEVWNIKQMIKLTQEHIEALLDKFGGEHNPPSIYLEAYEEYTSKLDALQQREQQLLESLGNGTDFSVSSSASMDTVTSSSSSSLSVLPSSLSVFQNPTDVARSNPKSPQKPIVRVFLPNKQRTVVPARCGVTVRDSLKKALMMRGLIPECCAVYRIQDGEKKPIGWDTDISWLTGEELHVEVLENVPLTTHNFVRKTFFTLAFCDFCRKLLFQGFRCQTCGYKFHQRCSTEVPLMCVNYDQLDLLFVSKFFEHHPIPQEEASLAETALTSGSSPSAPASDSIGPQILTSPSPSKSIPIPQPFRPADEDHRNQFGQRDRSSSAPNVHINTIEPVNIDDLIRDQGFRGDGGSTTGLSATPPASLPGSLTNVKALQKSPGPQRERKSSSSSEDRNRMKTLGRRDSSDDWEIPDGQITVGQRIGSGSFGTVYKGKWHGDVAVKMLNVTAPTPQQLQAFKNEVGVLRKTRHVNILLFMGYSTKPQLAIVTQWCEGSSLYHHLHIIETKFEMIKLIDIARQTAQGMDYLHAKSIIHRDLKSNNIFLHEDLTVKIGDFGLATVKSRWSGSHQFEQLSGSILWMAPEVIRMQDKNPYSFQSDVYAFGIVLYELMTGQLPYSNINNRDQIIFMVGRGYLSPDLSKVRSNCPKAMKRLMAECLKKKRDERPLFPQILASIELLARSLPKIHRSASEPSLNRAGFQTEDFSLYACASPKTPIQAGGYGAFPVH
Method: To check the B-Raf kinase inhibitory activity of the compounds of the present invention, the following experiments were conducted.
20 μl of diluting solvent (20 mM MOPS, pH 7.2, 25 mM β-glycerol phosphate, 5 mM EGTA, 1 mM sodium orthovanadate, 1 mM dithiothreitol) and 10 μl of Mg/ATP mixed solution (500 μM ATP, 75 mM magnesium chloride) were added into a centrifuge tube, the derivative compound of Formula 1 was added or the compounds of the Examples were not added as a control group, and then 1 ng of activated B-Raf, 0.4 ng of inactivated MEK1, and 1 μg of inactivated MAPK2 were added. The solutions in the tube were collected on the bottom via centrifugation and were reacted at 30° C. for 30 minutes. After taking 4 μl of the mixed solution, the test proceeded to the next step.
(2) Phosphorylation of Matrix Protein MBP by MAPK2
10 μl of diluting solvent, 20 μg of MBP used as a matrix, and 10 μl of diluted [γ-32P]ATP (1 μCi/μL) were added into the 4 μl of the mixed solution obtained from (1). The solutions in the tube were collected on the bottom via centrifugation and were reacted at 30° C. for 30 minutes. And 25 μl of the reacted solution was put carefully on the center of a filter paper (2 cm×2 cm P81) for 30 seconds. Afterwards, the filter paper was cleaned with 0.75% phosphoric acid for 10 minutes three times and with acetone for 5 minutes one time. The filter paper was then moved to a scintillation vial and 5 ml of scintillation cocktail was added thereto. The inhibition rate (IC50) over B-Raf activity was measured by reading radioactivity through a scintillation counter while comparing to the control group.

[2] = test system: A375P cell line; assay: B-Raf cell activity inhibition (A375P growth inhibition, MTT assay); type: cell-based; settings: A375P human melanoma, V600E mutant of B-Raf, 72 hours
Method: To check the B-Raf cell activity inhibitory capability of the compounds of the present invention, the following experiments were conducted in A375P cell line (ATCC). […] A375 cell was maintained in DMEM supplemented with 10% fetal bovine serum, glutamine (2 mM), penicillin (100 U/mL), and streptomycin (100 μg/mL). The cell was maintained at 37° C., and in 5% CO2 and 100% humidity. To conduct the growth inhibition test, the cell was plated by using a white 384-well microplate, with 1000 cells/20 μl plated per 1 well. After 24 hours, 5 μl of 5× stock solution of drug was added. All the drugs were initially prepared with 200× stock solution in DMSO, and the final concentration of DMSO was 0.5%. The cell was incubated at 37° C. for 72 hours. For MTT assay, ‘CellTiter 96 (R) Non-Radioactive Cell Proliferation Assay (G4100)’ kit by Promega Corp. was used. 15 μl of dye solution of the Promega kit was put into each well and was cultured in the incubator for 4 hours. And 100 μl of each Solubilization/Stop Solution substance of the kit was added and fixed in the incubator for 24 hours again. And then, absorbance was measured by using a 96-well plate reader with 570 nm of absorbance.

Row | Structure (SMILES) | IC50 [1] [nM] | IC50 [2] [nM]
1 | Cn1ccc2cccc(S(=O)(=O)Nc3ccc(F)c(Nc4ncccc4-c4ncnc5[nH]cnc45)c3F)c21 [Example 42, N-(3-(3-(9H-purin-6-yl)pyridin-2-ylamino)-2,4-difluorophenyl)-1-methyl-1H-indole-7-sulfonamide] | 800 | 5870
2 | Cn1cc(S(=O)(=O)Nc2ccc(F)c(Nc3ncccc3-c3ncnc4[nH]cnc34)c2F)cn1 [Example 43, N-(3-(3-(9H-purin-6-yl)pyridin-2-ylamino)-2,4-difluorophenyl)-1-methyl-1H-pyrazole-4-sulfonamide] | 120 | 1370
